≈ marks a conversion by molar mass, not a printed value. Non-standard residues stand in square brackets, D forms with d. Residues, ends and D or L forms follow the SMILES beside them. ξ: configuration not given here. ξP = O=C(O)C1CCCN1

The test system of data set [1] is Klebsiella pneumoniae. The data set can be described thus: Antimicrobial activity against Klebsiella pneumoniae NCTC 418 incubated for 16 to 20 hrs in full muller hinton medium by broth microdilution method. Format: functional. The conditions noted are these: time 16-20 hrs.
Data set [2] relates to Pseudomonas aeruginosa. Nature of the data set: Antimicrobial activity against Pseudomonas aeruginosa PAO1 incubated for 16 to 20 hrs in full muller hinton medium by broth microdilution method. The conditions noted are these: time 16-20 hrs. Format: functional. On the technique in general: Dilution methods test growth across graded concentrations, often in twofold steps.
Data set [3] concerns Acinetobacter baumannii. The data set can be described thus: Antimicrobial activity against Acinetobacter baumannii ATCC 19606 incubated for 16 to 20 hrs in full muller hinton medium by broth microdilution method. The class given is functional. As to conditions: time 16-20 hrs.
The test system of data set [4] is Staphylococcus aureus. Nature of the data set: Antimicrobial activity against methicillin-resistant Staphylococcus aureus COL incubated for 16 to 20 hrs in full muller hinton medium by broth microdilution method. Format: functional. As to conditions: time 16-20 hrs.
Data set [5] concerns Klebsiella pneumoniae. The data set can be described thus: Antimicrobial activity against Klebsiella pneumoniae NCTC 418 incubated for 16 to 20 hrs in 12.5 % muller hinton medium by broth microdilution method. The conditions noted are these: time 16-20 hrs. The class given is functional.
In data set [6] the test system is Pseudomonas aeruginosa. The data set can be described thus: Antimicrobial activity against Pseudomonas aeruginosa PAO1 incubated for 16 to 20 hrs in 12.5 % muller hinton medium by broth microdilution method. Format: functional. As to conditions: time 16-20 hrs.
Data set [7] is described as follows: Hemolytic activity in human RBC incubated for 4 hrs. The class given is toxicity, cell-based. As to conditions: erythrocyte.
Data set [8] deals with Staphylococcus aureus. The data set can be described thus: Antimicrobial activity against methicillin-resistant Staphylococcus aureus COL incubated for 16 to 20 hrs in 12.5 % muller hinton medium by broth microdilution method. The class given is functional. As to conditions: time 16-20 hrs.
Data set [9] deals with Escherichia coli. Nature of the data set: Antimicrobial activity against Escherichia coli W3110 incubated for 16 to 20 hrs in 12.5 % muller hinton medium by broth microdilution method. The class given is functional. As to conditions: time 16-20 hrs.

A word on the MIC: it is the least concentration at which growth counts as inhibited. Higher therefore signals a need for much substance. On to `CC[C@H](C)[C@H](NC(=O)[C@H](CCCNC(=N)N)NC(=O)[C@H](CCCNC(=N)N)NC(=O)[C@@H]1CCCN1C(=O)[C@@H]1CCCN1C(=O)[C@H](CCCNC(=N)N)NC(=O)[C@@H]1CCCN1C(=O)[C@H](CCCNC(=N)N)NC(=O)[C@@H]1CCCN1C(=O)[C@H](CC(C)C)NC(=O)[C@H](Cc1ccc(O)cc1)NC(=O)[C@H]1CCCN1C(=O)[C@@H]1CCCN1C(=O)[C@H](CCCCN)NC(=O)[C@H](CC(=O)O)NC(=O)[C@@H](N)C(C)C)C(=O)N[C@@H](Cc1ccc(O)cc1)C(=O)N[C@@H](CC(N)=O)C(=O)N[C@@H](CCCNC(=N)N)C(N)=O` (H-VDKP[dP]YLPRPRPPRRIYNR-NH2), for which the MIC is above 64 µg/mL in data set [1]; above 64 µg/mL in data set [2]; above 64 µg/mL in data set [3]; above 64 µg/mL in data set [4]; above 16 µg/mL in [5]; above 16 µg/mL in data set [6]. This compound yielded an MHC in data set [7] above 1000 µg/mL.

In the case of `CC[C@H](C)[C@H](NC(=O)[C@H](CCCNC(=N)N)NC(=O)[C@H](CCCNC(=N)N)NC(=O)[C@@H]1CCCN1C(=O)[C@@H]1CCCN1C(=O)[C@H](CCCNC(=N)N)NC(=O)[C@@H]1CCCN1C(=O)[C@H](CCCNC(=N)N)NC(=O)[C@@H]1CCCN1C(=O)[C@H](CC(C)C)NC(=O)[C@H](Cc1ccc(O)cc1)NC(=O)[C@@H]1CCCN1C(=O)[C@H]1CCCN1C(=O)[C@H](CCCCN)NC(=O)[C@H](CC(=O)O)NC(=O)[C@@H](N)C(C)C)C(=O)N[C@@H](Cc1ccc(O)cc1)C(=O)N[C@@H](CC(N)=O)C(=O)N[C@@H](CCCNC(=N)N)C(N)=O` (H-VDK[dP]PYLPRPRPPRRIYNR-NH2), the figures for the MIC in data set [2], in data set [4] and in data set [6] were above 64 µg/mL, above 64 µg/mL and above 16 µg/mL, respectively. In data set [7], this compound showed an MHC above 1000 µg/mL.

For the compound `CC[C@H](C)[C@H](NC(=O)[C@H](CCCNC(=N)N)NC(=O)[C@H](CCCNC(=N)N)NC(=O)[C@@H]1CCCN1C(=O)[C@@H]1CCCN1C(=O)[C@H](CCCNC(=N)N)NC(=O)[C@@H]1CCCN1C(=O)[C@H](CCCNC(=N)N)NC(=O)[C@@H]1CCCN1C(=O)[C@H](CC(C)C)NC(=O)[C@H](Cc1ccc(O)cc1)NC(=O)[C@H]1CCCN1C(=O)[C@H]1CCCN1C(=O)[C@H](CCCCN)NC(=O)[C@H](CC(=O)O)NC(=O)[C@@H](N)C(C)C)C(=O)N[C@@H](Cc1ccc(O)cc1)C(=O)N[C@@H](CC(N)=O)C(=O)N[C@@H](CCCNC(=N)N)C(N)=O` (H-VDK[dP][dP]YLPRPRPPRRIYNR-NH2), the MIC was above 64 µg/mL in data set [1]; above 64 µg/mL in [2]; above 64 µg/mL in [3]; above 64 µg/mL in data set [4]; above 16 µg/mL in [5]; above 16 µg/mL in data set [6]. Moreover, in data set [8], the MIC was above 64 µg/mL. In addition, in [7], the MHC was above 1000 µg/mL.

Consider `CC[C@H](C)[C@H](NC(=O)[C@H](CCCNC(=N)N)NC(=O)[C@H](CCCNC(=N)N)NC(=O)[C@@H]1CCCN1C(=O)[C@@H]1CCCN1C(=O)[C@H](CCCNC(=N)N)NC(=O)[C@@H]1CCCN1C(=O)[C@H](CCCNC(=N)N)NC(=O)[C@@H]1CCCN1C(=O)[C@H](CC(C)C)NC(=O)[C@H](Cc1ccc(O)cc1)NC(=O)C1CCCN1C(=O)C1CCCN1C(=O)[C@H](CCCCN)NC(=O)[C@H](CC(=O)O)NC(=O)[C@@H](N)C(C)C)C(=O)N[C@@H](Cc1ccc(O)cc1)C(=O)N[C@@H](CC(N)=O)C(=O)N[C@@H](CCCNC(=N)N)C(N)=O` (stereo not given in full) (H-VDK[ξP][ξP]YLPRPRPPRRIYNR-NH2), for which the MIC in data set [2] was above 64 µg/mL; in [4], above 64 µg/mL; in data set [9], 4 µg/mL (≈ 1.67 µM); in data set [5], 8 µg/mL (≈ 3.35 µM); in data set [6] it was above 16 µg/mL. For the same compound, the MHC in data set [7] is above 1000 µg/mL.
